Data from patent US20180125073A1, “PESTICIDAL COMPOSITIONS AND RELATED METHODS” (priority 2015, published 2018).

Test system: green peach aphids (Myzus persicae)
Test: Pesticidal activity against green peach aphid on cabbage plants after soil treatment
Format: in vivo
Details: no surfactant added
Protocol: Each tested compositions was prepared by mixing a predetermined amount of the CLOSER® SC insecticide (a sulfoxaflor concentrate having a sulfoxaflor concentration of 240 g/L) with a predetermined amount of the selected nonionic surfactant in an aqueous medium. Two nonionic surfactants were used in the study: alkyl polyglycoside AGNIQUE® PG 8107 surfactant from Cognis Corporation (C8-C10 alkyl polyglycoside with degree of polymer of 1.7), and PEG-3 tridecyl alcohol ether MAKON® TD3 surfactant from Stepan Company.
For example, the “Sulfoxaflor at 100 ppm” composition contained about 0.043% weight of sulfoxaflor based on the total weight of the composition (i.e., 100 ppm of sulfoxaflor per one gram of final soil mixture). “Sulfoxaflor at 100 ppm+AGNIQUE®” composition contained about 0.043% weight of sulfoxaflor based on the total weight of the composition (i.e., 100 ppm of sulfoxaflor per one gram of final soil mixture), and about 0.225% weight of alkyl polyglycoside AGNIQUE® PG 8107 surfactant based on the total weight of the composition (i.e., 384 ppm per one gram of the final soil mixture; 1500 ppm per one gram of the total soil liquid).
The imidacloprid pesticide PROVADO® 1.6 from Bayer CropScience LP (North Carolina, USA) was used as a standard commercial pesticidal composition for aphid control. The imidacloprid pesticide PROVADO® 1.6 was tested at three different loadings: 100 ppm, 25 ppm, and 6.25 ppm per gram of final soil mixture.
In this EXAMPLE 7, water was tested as a control composition. Furthermore, an aqueous solution of alkyl polyglycoside AGNIQUE® PG 8107 surfactant and an aqueous solution of PEG-3 tridecyl alcohol ether MAKON® TD3 surfactant were tested. […]
Each of the 1-ounce clear cups was filled with about 30 grams of the inoculated Midwest field soil having the components as shown in TABLE 7. […] The soil moisture of the Midwest field soil was about 15% as measured by Mettler LJ16 Moisture Analyzer (15 minutes and 100° C.). […]

`C[C@@H](c1ccc(C(F)(F)F)nc1)[S@@](C)(=O)=NC#N` (racemic) [Sulfoxaflor, [methyl(oxo) {1-[6-(trifluoromethyl)-3-pyridyl]ethyl}-λ^6-sulfanylidene]cyanamide] was tested. Which “number of live GPA aphids on cabbage plant” value (from here on “number of live GPA aphids”) (DAT of 21 days, loading 6.25 ppm) did it give?
Its value is “about 38”.

What about the “number of live GPA aphids” value (DAT of 21 days, loading 100 ppm per gram of final soil mixture) of the same compound?
The value was “no live GPA aphid”.

What about the “number of live GPA aphids” value (DAT of 28 days, sulfoxaflor 100 ppm) of the same compound?
The value was “no live GPA aphid”.
